# From patent US20220402882A1, “HERBICIDAL COMPOUNDS” (SYNGENTA CROP PROTECTION AG, priority 2019, published 2022)
# Columns and labels:
# Type in all cases: in vivo
# Conditions in all cases: evaluated after 13 days
# [1] = tested on: Echinochloa crus-galli (ECHCG); assay: Pre-emergence glasshouse herbicide test
# Summary of the method: (§1)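 Scores are percentage plant damage 13 days after treatment, binned 5=80-100%, 4=60-79%, 3=40-59%, 2=20-39%, 1=0-19%. Compounds were sprayed at 125 g/h unless otherwise indicated, either one day after sowing or on 8-day-old plants, under 24/16 °C, 14 h light and 65% humidity.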
# [2] = tested on: Ipomoea hederacea (IPOHE); assay: Pre-emergence glasshouse herbicide test
# Summary of the method: as §1
# Setaria faberi (SETFA) [3] = assay: Pre-emergence glasshouse herbicide test
# Summary of the method: as §1
# [4] = tested on: Amaranthus retoflexus (AMARE); assay: Pre-emergence glasshouse herbicide test
# Summary of the method: as §1
# [5] = tested on: Abutilon theophrasti (ABUTH); assay: Pre-emergence glasshouse herbicide test
# Summary of the method: as §1
# [6] = tested on: Echinochloa crus-galli (ECHCG); assay: Post-emergence glasshouse herbicide test
# Summary of the method: as §1
# [7] = tested on: Ipomoea hederacea (IPOHE); assay: Post-emergence glasshouse herbicide test
# Summary of the method: as §1
# Setaria faberi (SETFA) [8] = assay: Post-emergence glasshouse herbicide test
# Summary of the method: as §1
# [9] = tested on: Amaranthus retoflexus (AMARE); assay: Post-emergence glasshouse herbicide test
# Summary of the method: as §1
# [10] = tested on: Abutilon theophrasti (ABUTH); assay: Post-emergence glasshouse herbicide test
# Summary of the method: as §1
Compound,"percentage damage caused to the plant, ECHCG ([1]; 125 g/h)","percentage damage caused to the plant, IPOHE ([2]; 125 g/h)","percentage damage caused to the plant, SETFA (Setaria faberi (SETFA) [3]; 125 g/h)","percentage damage caused to the plant, AMARE ([4]; 125 g/h)","percentage damage caused to the plant, ABUTH ([5]; 125 g/h)","percentage damage caused to the plant, ECHCG ([6]; 125 g/h)","percentage damage caused to the plant, IPOHE ([7]; 125 g/h)","percentage damage caused to the plant, SETFA (Setaria faberi (SETFA) [8]; 125 g/h)","percentage damage caused to the plant, AMARE ([9]; 125 g/h)","percentage damage caused to the plant, ABUTH ([10]; 125 g/h)","percentage damage caused to the plant, ECHCG ([1]; *Applied at 250 g/ha)","percentage damage caused to the plant, IPOHE ([2]; *Applied at 250 g/ha)","percentage damage caused to the plant, SETFA (Setaria faberi (SETFA) [3]; *Applied at 250 g/ha)","percentage damage caused to the plant, AMARE ([4]; *Applied at 250 g/ha)","percentage damage caused to the plant, ABUTH ([5]; *Applied at 250 g/ha)","percentage damage caused to the plant, ECHCG ([6]; *Applied at 250 g/ha)","percentage damage caused to the plant, IPOHE ([7]; *Applied at 250 g/ha)","percentage damage caused to the plant, SETFA (Setaria faberi (SETFA) [8]; *Applied at 250 g/ha)","percentage damage caused to the plant, AMARE ([9]; *Applied at 250 g/ha)","percentage damage caused to the plant, ABUTH ([10]; *Applied at 250 g/ha)"
CC[S+]([O-])c1c(OC(F)(F)F)ccc(C(=O)Nc2nnnn2C)c1C (stereo not drawn) [Compound 1.023],5 (5=80-100%),5 (5=80-100%),5 (5=80-100%),5 (5=80-100%),5 (5=80-100%),5 (5=80-100%),5 (5=80-100%),5 (5=80-100%),5 (5=80-100%),5 (5=80-100%),–,–,–,–,–,–,–,–,–,–
Cc1c(C(=O)Nc2nnnn2C)ccc(OC(F)(F)F)c1S(C)(=O)=O [Compound 1.013],5 (5=80-100%),5 (5=80-100%),5 (5=80-100%),5 (5=80-100%),5 (5=80-100%),5 (5=80-100%),5 (5=80-100%),5 (5=80-100%),5 (5=80-100%),5 (5=80-100%),–,–,–,–,–,–,–,–,–,–
CC[S+]([O-])c1c(CC(F)(F)F)ccc(C(=O)Nc2nnnn2C)c1Cl (stereo not drawn) [Compound 1.020],5 (5=80-100%),5 (5=80-100%),5 (5=80-100%),5 (5=80-100%),5 (5=80-100%),5 (5=80-100%),5 (5=80-100%),5 (5=80-100%),5 (5=80-100%),5 (5=80-100%),–,–,–,–,–,–,–,–,–,–
CCSc1c(OC(F)(F)F)ccc(C(=O)Nc2nnnn2C)c1C [Compound 1.030],5 (5=80-100%),3 (3=40-59%),5 (5=80-100%),5 (5=80-100%),5 (5=80-100%),5 (5=80-100%),5 (5=80-100%),5 (5=80-100%),5 (5=80-100%),5 (5=80-100%),–,–,–,–,–,–,–,–,–,–
CSc1c(OC(F)(F)F)ccc(C(=O)Nc2nnc(C)o2)c1Cl [Compound 2.006],–,–,–,–,–,–,–,–,–,–,1 (1=0-19%),1 (1=0-19%),1 (1=0-19%),5 (5=80-100%),2 (2=20-39%),5 (5=80-100%),5 (5=80-100%),5 (5=80-100%),5 (5=80-100%),5 (5=80-100%)
CCCSc1c(OC(F)F)ccc(C(=O)Nc2nnnn2CC)c1Cl [Compound 1.067],5 (5=80-100%),2 (2=20-39%),4 (4=60-79%),5 (5=80-100%),4 (4=60-79%),4 (4=60-79%),4 (4=60-79%),4 (4=60-79%),5 (5=80-100%),5 (5=80-100%),–,–,–,–,–,–,–,–,–,–
